Assays:
[1] = target: T1, purified recombinant human MMP-2 (Homo sapiens, UniProt P08253); experiment: MMP-2 quenched fluorescence screening assay; type: biochemical; details: 96-well quenched fluorescence assay, same fluorogenic peptide substrate
T1 construct: made in house
T1 sequence (P08253 110-660): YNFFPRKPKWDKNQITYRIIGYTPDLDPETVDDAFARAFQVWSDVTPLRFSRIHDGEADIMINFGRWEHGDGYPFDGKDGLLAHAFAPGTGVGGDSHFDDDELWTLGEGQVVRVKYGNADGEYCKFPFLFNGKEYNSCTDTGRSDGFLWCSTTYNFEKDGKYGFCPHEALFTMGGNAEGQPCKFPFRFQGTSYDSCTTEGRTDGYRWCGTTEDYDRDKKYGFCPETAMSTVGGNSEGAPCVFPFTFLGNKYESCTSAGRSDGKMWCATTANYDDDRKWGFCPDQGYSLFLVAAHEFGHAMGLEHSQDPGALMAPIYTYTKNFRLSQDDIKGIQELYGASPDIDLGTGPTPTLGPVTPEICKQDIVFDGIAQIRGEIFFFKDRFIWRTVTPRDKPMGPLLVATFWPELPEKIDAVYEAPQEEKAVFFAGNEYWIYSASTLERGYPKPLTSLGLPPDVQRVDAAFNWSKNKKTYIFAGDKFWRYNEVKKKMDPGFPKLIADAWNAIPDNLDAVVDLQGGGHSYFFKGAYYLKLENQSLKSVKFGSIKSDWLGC
Description: (§1) A high-throughput, 96-well screen was used to measure MMP-9 activity and to detect potential inhibitors of MMP-9. The screen is a quenched fluorescence assay. The components of the assay include purified recombinant human MMP-9 (generated by. SB, 3 nM final concentration) and a fluorogenic peptide substrate (Peptides International, Louisville, Ky., 10 (M final concentration) incubated in the presence or absence of compound. Briefly, enzyme activity is measured after 30 minutes incubation at 37(C. and quantitated using a peptide substrate, (Dnp-Pro-Cha-Gly-Cys(Me)-His-Ala-Lys(NMa)-NH2 or (2,4-Dinitrophenyl-L-Prolyl-L-Cyclohexylalanyl-Glycyl(-Methyl-L-Cysteinyl-L-Histidyl-L-Alanyl-N(-Methylenthranoyl-L-Lysine Amide) containing a fluorophore, Nma, on one end of the peptide and a quencher, Dnp, on the other end. When the peptide is intact, the fluorophore is quenched. When the peptide is cleaved by MMP-9, the quencher is dissociated from the fluorophore and a fluorescent signal is emitted that can easily be detected using a fluorescent plate reader. The universal cleavage site within the peptide that is recognized by MMP-1, -2, -3, -9 and -13 is the Gly-Cys bond.
(§2) A 96-well quenched fluorescence assay was used to measure MMP-9 and MMP-2 activity and to detect potential inhibitors of MMP-9 and MMP-2. […] For these additional screens, an IC50 value was determined. […]

[2] = target: T2, purified recombinant human MMP-9 (Homo sapiens, UniProt P14780); experiment: MMP-9 quenched fluorescence screening assay; type: biochemical; details: 96-well quenched fluorescence assay, fluorogenic peptide substrate, 30 minutes at 37 C
T2 construct: made in house
Description: as §1, §2

T2 sequence (P14780 94-707): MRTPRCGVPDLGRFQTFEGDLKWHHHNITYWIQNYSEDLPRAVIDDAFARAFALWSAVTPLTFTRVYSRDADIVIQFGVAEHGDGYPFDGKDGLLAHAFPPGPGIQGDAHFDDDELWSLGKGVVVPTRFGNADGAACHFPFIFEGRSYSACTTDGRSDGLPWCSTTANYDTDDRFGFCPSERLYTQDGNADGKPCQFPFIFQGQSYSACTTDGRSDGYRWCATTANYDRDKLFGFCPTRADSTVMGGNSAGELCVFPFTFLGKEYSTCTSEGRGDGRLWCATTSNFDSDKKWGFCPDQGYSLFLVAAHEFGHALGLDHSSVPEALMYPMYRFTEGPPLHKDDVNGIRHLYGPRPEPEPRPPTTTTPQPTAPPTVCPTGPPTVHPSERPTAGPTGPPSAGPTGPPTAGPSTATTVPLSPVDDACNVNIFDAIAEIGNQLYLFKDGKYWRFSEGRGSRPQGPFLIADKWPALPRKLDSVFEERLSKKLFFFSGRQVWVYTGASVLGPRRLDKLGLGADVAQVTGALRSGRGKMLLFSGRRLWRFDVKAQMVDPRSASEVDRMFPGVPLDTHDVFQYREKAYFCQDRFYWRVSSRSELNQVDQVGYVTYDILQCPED

SMILES: CCCCCCCCC[C@H](CC(=O)O)C(=O)N[C@@H](C(=O)NC)c1ccccc1 [Example 1, N-[2(R)-Nonylsuccinic acid]-L-phenylglycine-N-methylamide]
- MMP-2 inhibition (screening result in words) [1]: identified as a dual MMP-2/MMP-9 inhibitor
- MMP-9 inhibition (screening result in words) [2]: identified as a dual MMP-2/MMP-9 inhibitor

From patent US20030225272A1, “Novel mmp-2/mmp-9 inhibitors” (priority 2003, published 2003)
